Source: patent publication US20050171190A1, “Substituted 5-chroman-5-YL-ethylamine compounds and their use for the treatment of glaucoma” (Alcon, Inc., priority 2002, published 2005)
Like-named read-outs stand apart in the source and are kept apart here.

Experiments:
5-HT2 receptors = settings: cited from earlier work
5-HT2A receptor [1] = biological target: 5-HT2A receptor (Homo sapiens, UniProt P28223); settings: cited from earlier work
[2] = drug discrimination studies; cited from earlier work
5-HT2C receptor = biological target: T1, 5-HT2C receptor (Homo sapiens, UniProt P28335); settings: cited from earlier work
T1 sequence (P28335 33-458): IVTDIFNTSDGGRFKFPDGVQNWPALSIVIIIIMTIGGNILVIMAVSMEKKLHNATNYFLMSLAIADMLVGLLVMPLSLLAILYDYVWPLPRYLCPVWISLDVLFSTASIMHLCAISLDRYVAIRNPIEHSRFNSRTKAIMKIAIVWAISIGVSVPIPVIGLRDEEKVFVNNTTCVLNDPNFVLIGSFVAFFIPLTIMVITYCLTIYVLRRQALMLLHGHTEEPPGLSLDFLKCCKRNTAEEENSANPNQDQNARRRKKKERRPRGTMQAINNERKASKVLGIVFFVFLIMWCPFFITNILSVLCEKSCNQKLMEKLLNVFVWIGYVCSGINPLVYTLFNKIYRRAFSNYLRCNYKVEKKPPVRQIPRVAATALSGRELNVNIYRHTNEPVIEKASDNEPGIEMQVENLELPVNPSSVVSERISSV

[3] = monkey; due to its α1A receptor activity; cited from earlier work
[4] = rabbits; cited from earlier work
5-HT2A Receptor [5] = biological target: T2, 5-HT2A Receptor (Rattus norvegicus, UniProt P14842); assay: 5-HT2 functional assay: [Ca2+]i mobilization (FLIPR); assay type: cell-based
T2 construct: endogenous in cells; host or cells: A7r5 rat vascular smooth muscle cells
Description: The receptor-mediated mobilization on intracellular calcium ([Ca2+]i) was studied using the Fluorescence Imaging Plate Reader (FLIPR) instrument. Rat vascular smooth muscle cells, A7r5, were grown in a normal media of DMEM/10% FBS and 10 μg/mL gentamycin. Confluent cell monolayers were trypsinized, pelleted, and re-suspended in normal media. Cells were seeded in a 50 μL volume at a density of 20,000 cells/well in a black wall, 96-well tissue culture plate and grown for 2 days.
On the day of the experiment, one vial of FLIPR Calcium Assay Kit dye was re-suspended in 50 mL of a FLIPR buffer consisting of Hank's Balanced Salt Solution (HBSS), 20 mM HEPES, and 2.5 mM probenecid, pH 7.4. […]
The compound plate and cell plate were placed in the FLIPR instrument. At the beginning of an experimental run, a signal test was performed to check the basal fluorescence signal from the dye-loaded cells and the uniformity of the signal across the plate. The basal fluorescence was adjusted between 8000-12000 counts by modifying the exposure time, the camera F-stop, or the laser power. […] Fluorescence data were collected in real-time at 1.0 sec intervals for the first 60 secs and at 6.0 sec intervals for an additional 120 secs. Responses were measured as peak fluorescence intensity minus basal and where appropriate were expressed as a percentage of a maximum 5-HT-induced response. […]

5-HT2A Receptor [6] = assay: 5-HT2 receptor binding assay ([125I]DOI competition); parameters: species or system rat or human; settings: inhibition of [125I]DOI binding, cerebral cortex homogenates
Description: Aliquots of post mortem rat or human cerebral cortex homogenates (400 μL) dispersed in 50 mM Tris-HCl buffer (pH 7.4) are incubated with [125I]DOI (80 pM final) in the absence or presence of methiothepin (10 μM final) to define total and non-specific binding, respectively, in a total volume of 0.5 mL. The assay mixture is incubated for 1 hour at 23° C. in polypropylene tubes and the assays terminated by rapid vacuum filtration over Whatman GF/B glass fiber filters previously soaked in 0.3% polyethyleneimine using ice-cold buffer. Test compounds (at different concentrations) are substituted for methiothepin. Filter-bound radioactivity is determined by scintillation spectrometry on a beta counter. The data are analyzed using a non-linear, iterative curve-fitting computer program (Bowen et al. 1995) to determine the compound affinity parameter. The concentration of the compound needed to inhibit the [125I]DOI binding by 50% of the maximum is termed the IC50 value.

T2 sequence (P14842 whole entry): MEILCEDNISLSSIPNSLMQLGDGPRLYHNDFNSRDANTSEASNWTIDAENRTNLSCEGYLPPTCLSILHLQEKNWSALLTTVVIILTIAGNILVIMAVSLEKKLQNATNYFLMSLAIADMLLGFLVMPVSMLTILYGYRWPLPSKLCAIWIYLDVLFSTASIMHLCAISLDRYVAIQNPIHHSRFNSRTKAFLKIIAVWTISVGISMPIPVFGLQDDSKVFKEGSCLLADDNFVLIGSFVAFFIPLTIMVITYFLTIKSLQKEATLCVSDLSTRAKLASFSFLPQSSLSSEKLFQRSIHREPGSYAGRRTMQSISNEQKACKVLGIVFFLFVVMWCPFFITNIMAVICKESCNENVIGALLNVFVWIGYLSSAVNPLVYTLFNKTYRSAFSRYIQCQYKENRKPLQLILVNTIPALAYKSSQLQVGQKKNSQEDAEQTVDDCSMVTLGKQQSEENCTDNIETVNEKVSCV
Sequence of 5-HT2A receptor (P28223 whole entry): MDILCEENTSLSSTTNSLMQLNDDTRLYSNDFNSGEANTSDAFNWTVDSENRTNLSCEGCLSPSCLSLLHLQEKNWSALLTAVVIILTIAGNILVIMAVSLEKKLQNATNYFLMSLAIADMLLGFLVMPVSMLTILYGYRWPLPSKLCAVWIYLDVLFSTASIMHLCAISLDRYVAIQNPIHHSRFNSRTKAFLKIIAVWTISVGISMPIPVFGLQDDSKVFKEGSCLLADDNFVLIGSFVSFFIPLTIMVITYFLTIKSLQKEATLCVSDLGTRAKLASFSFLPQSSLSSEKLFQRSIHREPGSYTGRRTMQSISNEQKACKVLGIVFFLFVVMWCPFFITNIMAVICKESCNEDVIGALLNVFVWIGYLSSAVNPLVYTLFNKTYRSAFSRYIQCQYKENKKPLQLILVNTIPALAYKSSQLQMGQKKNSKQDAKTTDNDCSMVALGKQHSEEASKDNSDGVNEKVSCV

COc1cc(CCN)c2c(c1OC)OCC2 [2-(6,7-Dimethoxy-2,3-dihydro-benzofuran-4-yl)-ethylamine]
affinity for 5-HT2 receptors (5-HT2 receptors): have affinity

COc1cc(Br)c2c(c1CC(C)N)CCO2 (stereo not drawn) [2-(7-bromo-5-methoxy-2,3-dihydro-benzofuran-4-yl)-1-methylethylamine]
affinity for the 5-HT2A receptor (5-HT2A receptor [1]): high affinity | generalization to LSD [2]: generalize to LSD

CC(N)Cc1cccc2occc12 (stereo not drawn) [2-benzofuran-4-yl-1-methylethylamine]
agonist activity at the 5-HT2C receptor (5-HT2C receptor): agonist activity

COc1ccccc1N1CCN(CCCNc2c(C)c(=O)n(C)c(=O)n2C)CC1 [5-methylurapidil]
effect on IOP [3]: lowers IOP

CCCN(CCC)C1CCc2cccc(O)c2C1 (stereo not drawn) [Compound 8-OH-DPAT, 8-hydroxy-2-(di-n-propylamino)tetralin]
effect on IOP [4]: reduces IOP

COc1cc(CC(C)N)c(OC)cc1I (stereo not drawn) [DOI]
Efficacy (Emax, %) (5-HT2A Receptor [5]; A7r5 cells, percentage of a maximum 5-HT-induced response): 31% | EC50 (5-HT2A Receptor [5]; A7r5 rat vascular smooth muscle cells, [Ca2+]i mobilization): 0.0302 µM | IC50 (5-HT2A Receptor [6]): 0.00033 µM
